GI50 and Kd data for eleven compounds are collected here from patent US20250388575A1, “HETEROBIFUNCTIONAL COMPOUNDS AND METHODS OF TREATING DISEASE” (Halda Therapeutics OpCo, Inc., priority 2022, published 2025).

The structures appear in SMILES notation. Read-outs that look alike come from different tables or passages of the source.

For test [1], the system named is T-Rex 293 cell line SC3 cells having increased expression of androgen receptor protein. Briefly: Cellular growth inhibition, T-Rex 293 SC3 cells with increased androgen receptor expression (doxycycline), CellTiter-Glo. To be noted: T-Rex 293 SC3 cells with increased androgen receptor expression (exposed to 10 ng/mL doxycycline), 72 hours, CellTiter-Glo; read-out: GI50. The test is classed as cell-based. In outline:
(§1)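 SC3, a T-Rex 293 clone with doxycycline-inducible wild-type androgen receptor, was seeded in phenol red-free DMEM with 10% charcoal-dextran FBS, with or without 10 ng/mL doxycycline. Compound added at 24 h (0.5% DMSO) for 72 h at 37° C. CellTiter-Glo 2.0 luminescence; GI50 from four-parameter fit.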

The subject of test [2] is T-Rex 293 cell line SC3 cells lacking increased expression of androgen receptor protein. Nature of the test: Cellular growth inhibition, T-Rex 293 SC3 cells lacking increased androgen receptor expression (no doxycycline), CellTiter-Glo. To be noted: T-Rex 293 SC3 cells lacking increased androgen receptor expression (not exposed to doxycycline), 72 hours, CellTiter-Glo; read-out: GI50. The test is classed as cell-based. In outline: as §1

The next test has as its system VCaP cells. Nature of the test: Cellular growth inhibition assay for VCaP cells, CellTiter-Glo. The format is cell-based, human. The following applies: VCaP cells, 72 hours, CellTiter-Glo, read-out: GI50. In a few lines: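 GI50 values come from four-parameter curve fits of luminescence data normalized to a zero baseline. Compound, in medium with 0.5% DMSO, was added one day after plating and left for 72 h before CellTiter-Glo 2.0 addition.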

In test [3] the test system is T-Rex 293 cell line SC cells having increased expression of progesterone receptor isoform B protein. Nature of the test: Cellular growth inhibition, T-Rex 293 SC cells with increased progesterone receptor isoform B expression (doxycycline), CellTiter-Glo. The following applies: progesterone receptor isoform B induced with 10 ng/mL doxycycline, 72 hours. The test is classed as cell-based. Here is the method:
(§2) The following types of cells were prepared for this experiment: (i) a T-Rex 293 cell line having increased expression of progesterone receptor isoform B protein due to exposure to doxycycline and (ii) a T-Rex 293 cell line lacking increased expression of progesterone receptor isoform B protein. Ability of the test compounds to inhibit proliferation of the foregoing cell types was evaluated according to the procedures set forth below.
(§3) The doxycycline-inducible progesterone receptor isoform B protein expressing cell line was established using the following protocol: T-Rex 293 cells were purchased from Invitrogen (Cat #R71007) and transfected using Lipofectamine 2000 with the wild-type progesterone receptor B protein sequence cloned into the pcDNA4/TO vector. Transfected cells were selected using 400 μg/mL Zeocin (Invitrogen Cat #R25001). Following selection, single clones were raised and maintained in Dulbecco's Modified Eagle Medium (DMEM) supplemented with 10% w/w Tetracycline-free fetal bovine serum (FBS) and 250 μg/mL Zeocin. Clones were analyzed for expression of progesterone receptor isoform B protein in the presence and absence of 10 ng/ml doxycycline (Sigma Cat #D9891), and a single doxycycline-inducible clone (hereinafter “SC”) was selected for use in downstream assays.
(§4) The SC cells were seeded on poly-D-lysine coated, black clear-bottom 384-well plates at 2500/well, in 25 μL Phenol Red Free Dulbecco's Modified Eagle Medium (DMEM) supplemented with 10% w/w charcoal-dextran treated fetal bovine serum (FBS) and 1% w/w pen-strep, with or without 10 ng/mL doxycycline. Pen-Strep is a commercially available mixture of penicillin G and streptomycin, which is used in mammalian cell culture media to prevent bacterial contamination. Phenol Red Free Dulbecco's Modified Eagle Medium (DMEM) supplemented with 10% w/w charcoal-dextran treated fetal bovine serum (FBS) and 1% w/w pen-strep, with or without 10 ng/mL doxycycline is herein referred to as Treatment Medium. Following seeding of cells in the plates, the plates were spun at 300×g for 30 seconds, then equilibrated to room temperature for 30 minutes, and then deposited in a humidified tissue culture incubator maintained at 37° C. with 5% CO2.
(§5) At 24 hours after seeding of the cells, dilutions of test compound were prepared in DMSO and dissolved in Treatment Medium, to achieve a final DMSO concentration of 0.5% w/w, thereby providing the Test Compound Solution. A 25 μL aliquot of the Test Compound Solution was added to cells in the well plates. An equal volume of a solution containing DMSO and Treatment Medium was used as a negative control. Following treatment of cells with Test Compound Solution or said equal volume of a solution containing DMSO and Treatment Medium, the plates were spun at 300×g for 30 seconds, and then left in an incubator for 72 hours.
(§6) At the end of the treatment duration, cell viability was quantified with CellTiter-Glo 2.0 reagent (Promega Cat #G9243). For this purpose, plates were equilibrated to room temperature for 30 minutes, and then 25 μL of CellTiter-Glo 2.0 reagent was added to cells in the plate wells. Plates were then agitated on a shaker for two minutes at 500 rpm and subsequently incubated at room temperature for 10 minutes. Following incubation, the plates were spun at 3000×g for 30 seconds, then sealed with an optical adhesive cover, and luminescence readings were measured with an EnVision Plate Reader (Perkin Elmer).
(§7) Data was normalized using zero luminescence for baseline. A four-parameter non-linear regression curve fit was applied to dose-response data in GraphPad Prism data analysis software to determine the half-maximal growth inhibitory concentration (GI50) for each test compound.

Test [4] relates to T-Rex 293 cell line SC cells lacking increased expression of progesterone receptor isoform B protein. Nature of the test: Cellular growth inhibition, T-Rex 293 SC cells lacking increased progesterone receptor isoform B expression (no doxycycline), CellTiter-Glo. To be noted: T-Rex 293 SC cells not exposed to doxycycline, 72 hours. The format is cell-based. As to the method: as §2, §3, §4, §5, §6, §7

In a further test the test system is T47D cells. Briefly: Cellular growth inhibition assay for T47D cells, CellTiter-Glo. The test is classed as cell-based, human. The following applies: 72 hours treatment, CellTiter-Glo 2.0. In outline: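 Luminescence from CellTiter-Glo 2.0 after 72 h of compound exposure gives the viability signal. Cells grew in insulin-supplemented (0.2 units/mL) DMEM with 10% FBS and were treated one day after seeding at 0.5% DMSO. GI50 values come from four-parameter nonlinear regression.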

For a further test, the target named is BRD4-BD1 (Homo sapiens (Human), UniProt O60885). Briefly: bromoKdELECT assay for binding affinity to BRD4-BD1. To be noted: 11-point 3-fold dilution. Here is the method: (§8) Compounds were tested using a bromoKdELECT assay. T7 phage strains displaying bromodomains were grown in parallel in 24-well blocks in an E. coli host derived from the BL21 strain. E. coli were grown to log-phase and infected with T7 phage from a frozen stock (multiplicity of infection=0.4) and incubated with shaking at 32° C. until lysis (90-150 minutes). The lysates were centrifuged (5,000×g) and filtered (0.2 μm) to remove cell debris. Streptavidin-coated magnetic beads were treated with biotinylated small molecule or acetylated peptide ligands for 30 minutes at room temperature to generate affinity resins for bromodomain assays. The liganded beads were blocked with excess biotin and washed with blocking buffer (SeaBlock (Pierce), 1% BSA, 0.05% Tween 20, 1 mM DTT) to remove unbound ligand and to reduce nonspecific phage binding. Binding reactions were assembled by combining bromodomains, liganded affinity beads, and test compounds in 1× binding buffer (17% SeaBlock, 0.33×PBS, 0.04% Tween 20, 0.02% BSA, 0.004% Sodium azide, 7.4 mM DTT). Test compounds were prepared as 1000× stocks in 100% DMSO. Kds were determined using an 11-point 3-fold compound dilution series with one DMSO control point. All compounds for Kd measurements are distributed by acoustic transfer (non-contact dispensing) in 100% DMSO. The compounds were then diluted directly into the assays such that the final concentration of DMSO was 0.09%. All reactions performed in polypropylene 384-well plates. Each was a final volume of 0.02 ml. The assay plates were incubated at room temperature with shaking for 1 hour and the affinity beads were washed with wash buffer (1×PBS, 0.05% Tween 20). The beads were then resuspended in elution buffer (1×PBS, 0.05% Tween 20, 2 μM non-biotinylated affinity ligand) and incubated at room temperature with shaking for 30 minutes. The bromodomain concentration in the eluates was measured by qPCR.

For the next test, the target named is BRD4-BD2 (Homo sapiens (Human), UniProt O60885). Nature of the test: bromoKdELECT assay for binding affinity to BRD4-BD2. The following applies: 11-point 3-fold dilution. Here is the method: as §8

Turning to `CN(CCOc1ccc(Oc2ccc(C(C)(C)O)cc2-c2cn(C)c(=O)c3[nH]ccc23)cc1)c1ccc(C(=O)N[C@H]2CC[C@H](Oc3ccc(C#N)c(Cl)c3)CC2)nn1` [I-98], the GI50 (in test [1]; in test [2]; in the test on VCaP cells; in test [3]; in test [4]) was less than 500 nM throughout.
Turning to `Cn1cc(-c2cc(C(C)(C)O)ccc2Oc2ccc(N3CCN(c4ccc(C(=O)N[C@H]5CC[C@H](Oc6ccc(C#N)c(Cl)c6)CC5)nn4)CC3)cc2)c2cc[nH]c2c1=O` [I-139], the GI50 (in test [1]; in test [2]; with VCaP cells; in test [3]; in test [4]; in the test with T47D cells) was less than 500 nM each time.
As for `Cn1cc(-c2cc(C(C)(C)O)ccc2Oc2ccc(CC3CCN(c4ccc(C(=O)N[C@H]5CC[C@H](Oc6ccc(C#N)c(Cl)c6)CC5)nn4)CC3)cc2)c2cc[nH]c2c1=O` [I-101], the GI50 is less than 500 nM in test [1]; 500 to 1500 nM in test [2]; less than 500 nM in the test with VCaP cells (Homo sapiens); less than 500 nM in test [3]; less than 500 nM in test [4]; less than 500 nM in the test with T47D cells (Homo sapiens).
As to `CCS(=O)(=O)c1ccc(Oc2cccc(CCCCN3CC4(C3)CN(c3ccc(C(=O)N[C@H]5CC[C@H](Oc6ccc(C#N)c(Cl)c6)CC5)nn3)C4)c2F)c(-c2cn(C)c(=O)c3[nH]ccc23)c1` [I-47], the GI50 (in test [1]; in test [2]; in the test with VCaP cells (Homo sapiens); in test [3]; in test [4]; in the test with T47D cells (Homo sapiens)) was less than 500 nM in each case.
Regarding `CN(CCCOc1ccc(Oc2ccc(C(C)(C)O)cc2-c2cn(C)c(=O)c3[nH]ccc23)cc1)c1ccc(C(=O)N[C@H]2CC[C@H](Oc3ccc(C#N)c(Cl)c3)CC2)nn1` [I-99], the GI50 in test [1] was less than 500 nM; in test [2], less than 500 nM; in the test with VCaP cells, less than 500 nM; in test [3] it was less than 500 nM; in test [4], 500 to 1500 nM; with T47D cells, 500 to 1500 nM.
As for `Cn1cc(-c2cc(C(C)(C)O)ccc2Oc2ccc(OCC3CCN(c4ccc(C(=O)N[C@H]5CC[C@H](Oc6ccc(C#N)c(Cl)c6)CC5)nn4)CC3)cc2)c2cc[nH]c2c1=O` [I-96], the GI50 (in test [1]; in test [2]; in the test on VCaP cells; in test [3]; in test [4]; in the test with T47D cells) was less than 500 nM throughout.
Regarding `Cn1cc(-c2cc(C(C)(C)O)ccc2Oc2ccc(CCOC3CCN(c4ccc(C(=O)N[C@H]5CC[C@H](Oc6ccc(C#N)c(Cl)c6)CC5)nn4)CC3)cc2)c2cc[nH]c2c1=O` [I-103], the concentration for 50% growth inhibition (GI50) (in test [1]; in test [2]; in the test with VCaP cells (Homo sapiens); in test [3]; in test [4]; in the test with T47D cells (Homo sapiens)) was less than 500 nM throughout.
Consider `CCS(=O)(=O)Nc1ccc(Oc2ccc(CCC3CCN(c4ccc(C(=O)N[C@H]5CC[C@H](Oc6ccc(C#N)c(Cl)c6)CC5)nn4)CC3)cc2)c(-c2cn(C)c(=O)c3[nH]ccc23)c1` [I-38], for which the Kd on BRD4-BD1 and on BRD4-BD2 was 500 to 2500 nM each time. The GI50 (in test [1]; in test [2]; with VCaP cells; in the test with T47D cells) was less than 500 nM in each case.
`CCS(=O)(=O)c1ccc(Oc2ccc(N3CC4(CCN(c5ccc(C(=O)NC6CCC(Oc7ccc(C#N)c(Cl)c7)CC6)nn5)CC4)C3)cc2)c(-c2cn(C)c(=O)c3[nH]ccc23)c1` (centres unmarked) [I-90, N-[4-(3-chloro-4-cyano-phenoxy)cyclohexyl]-6-[2-[4-[4-ethylsulfonyl-2-(6-methyl-7-oxo-1H-pyrrolo[2,3-c]pyridin-4-yl)phenoxy]phenyl]-2,7-diazaspiro[3.5]nonan-7-yl]pyridazine-3-carboxamide]: the Kd at BRD4-BD1 and at BRD4-BD2 was 50 to 500 nM throughout. Besides, the GI50 (in test [1]; in test [2]; with VCaP cells (Homo sapiens); in the test with T47D cells (Homo sapiens)) was less than 500 nM in each case.
`CCS(=O)(=O)c1ccc(Oc2cccc(CCN3CCN(c4ccc(C(=O)N[C@H]5CC[C@H](Oc6ccc(C#N)c(Cl)c6)CC5)nn4)CC3)c2F)c(-c2cn(C)c(=O)c3[nH]ccc23)c1` [I-55]: the Kd on BRD4-BD1 and on BRD4-BD2 was less than 50 nM in each case. In addition, the GI50 (in test [1]; in test [2]; in the test with VCaP cells (Homo sapiens); with T47D cells (Homo sapiens)) was less than 500 nM in each case.
Turning to `CCS(=O)(=O)c1ccc(Oc2ccc(CN3CC4(C3)CN(c3ccc(C(=O)N[C@H]5CC[C@H](Oc6ccc(C#N)c(Cl)c6)CC5)nn3)C4)cc2)c(-c2cn(C)c(=O)c3[nH]ccc23)c1` [I-56], the Kd on BRD4-BD1 and at BRD4-BD2 was less than 50 nM in each case. For the same compound, the concentration for 50% growth inhibition (GI50) (in test [1]; in test [2]; in the test on VCaP cells (Homo sapiens); in the test with T47D cells (Homo sapiens)) was less than 500 nM each time.
